Assay results taken from ChEMBL document CHEMBL2016539 (Bioorg Med Chem Lett, 2012).

Legend:
[1] = Immunosuppressive activity in C57BL/6 mouse T lymphocytes assessed as inhibition of cell proliferation after 72 hrs by MTT assay; format: functional, cell-based; conditions: C57BL/6, T-cell
[2] = target: Inosine-5'-monophosphate dehydrogenase 2 (Homo sapiens, UniProt P12268); test: Inhibition of IMPDH2 using inosine 5'-monophosphate as substrate by spectrophotometry

Row | Structure (SMILES) | IC50 [1] | IC50 [2]
1 | COc1c(C)c2c(c(O)c1C/C=C(\C)[C@@H](O)CC(=O)O)C(=O)OC2 | 1.1 µM | 1.79 µM
2 | COc1c(C)c2c(c(O)c1C/C=C(\C)CCC(=O)O)C(=O)OC2 [MYCOPHENOLIC ACID] | 0.32 µM | 
3 | COc1c(C)c2c(c(OC)c1C/C=C(\C)[C@@H](O)CC(=O)O)C(=O)OC2 [PENICACID A] | 2.46 µM | 28.9 µM
4 | COc1c(C)c2c(c(O)c1C/C=C(\C)[C@H](CC(=O)O)O[C@H]1O[C@H](CO)[C@@H](O)[C@H](O)[C@H]1O)C(=O)OC2 [PENICACID B] | > 20 µM | 6.43 µM
5 | COc1c(C)c2c(c(O)c1CC(O)C(C)(O)C(O)CC(=O)O)C(=O)OC2 (centres undefined) [PENICACID C] | > 30 µM | 73.2 µM
